Tests used:
hERG channels = hERG channels (Homo sapiens (Human), UniProt Q12809); assay: hERG Manual Patch Clamp Assay (HEK 293 cells stably expressing hERG channels); assay type: cell-based; settings: human, HEK 293 cells stably expressing hERG channels, pH 7.4
Protocol: hERG electrophysiology assay: The experimental compounds were assessed for hERG activity on HEK 293 cells stably expressing hERG channels using patch clamp technique. Coverslips plated with hERG expressing cells were placed in the experimental chamber and were perfused with a solution composed of (in mM): 140 NaCl, 4 KCl, 1.8 CaCl2), 1 MgCl2, 10 Glucose, 10 HEPES (pH 7.4, NaOH) at room temperature. Borosilicate patch pipettes had tip resistances of 2-4 Mohms when filled with an internal solution containing: 130 KCl, 1 MgCl2, 1 CaCl2), 10 EGTA, 10 HEPES, 5 ATP-K2 (pH 7.2, KOH). The cells were clamped at −80 mV in whole cell configuration using an Axopatch 200B (Axon instruments, Union City, Calif.) patch clamp amplifier controlled by pClamp (Axon instruments) software. Upon formation of a gigaseal, the following voltage protocol was repeatedly (0.05 Hz) applied to record tail currents: depolarization step from −80 mV to +20 mV for 2 seconds followed by a hyperpolarization step to −65 mV (3 seconds) to elicit tail currents. Compounds were applied after stabilization of tail current. First, tail currents were recorded in presence of extracellular solution alone (control) and subsequently, in extracellular solution containing increasing compound concentrations. Each compound concentration was applied for 2-5 minutes. The percentage inhibition at each concentration was calculated as reduction in peak tail current with respect to the peak tail current recorded in the presence of control solution. Data analysis was performed in a custom made template. The percent inhibitions at different concentrations were plotted to obtain a concentration response curve, which was subsequently fitted with a four parameter equation to calculate hERG IC50 value.
A lower hERG % Inhibition value indicates less inhibition of the hERG current

hROMK (human Kir1.1) = hROMK (human Kir1.1) (Homo sapiens (Human), UniProt P48048); assay: Thallium Flux Assay (FluxOR, CHO T-Rex hROMK stable cell line); assay type: cell-based; settings: CHO T-Rex hROMK cells, 10-point concentration response curve; read-out: Human ROMK TH Flux IC50
Chain of hROMK (human Kir1.1) (P48048 whole entry): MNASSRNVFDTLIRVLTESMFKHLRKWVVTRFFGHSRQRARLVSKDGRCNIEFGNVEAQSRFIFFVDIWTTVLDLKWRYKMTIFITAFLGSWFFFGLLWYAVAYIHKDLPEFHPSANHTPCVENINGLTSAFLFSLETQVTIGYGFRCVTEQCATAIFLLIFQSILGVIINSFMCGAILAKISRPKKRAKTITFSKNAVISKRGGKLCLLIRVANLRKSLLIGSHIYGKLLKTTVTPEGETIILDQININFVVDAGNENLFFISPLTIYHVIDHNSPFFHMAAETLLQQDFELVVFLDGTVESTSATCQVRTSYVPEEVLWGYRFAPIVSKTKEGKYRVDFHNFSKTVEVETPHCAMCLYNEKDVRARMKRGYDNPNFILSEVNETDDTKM
Protocol: Solutions and reagents: Thallium flux assay was performed using FluxOR kit (F10017, Life Technologies). Loading buffer, assay buffer and stimulus buffer were prepared using kit components.
To prepare 10 ml of loading buffer: 10 μl of FluxOR dye (reconstituted in DMSO) was first added to 100 μl of powerload concentrate and this mix along with 100 μl of Probenicid (100×) was then added to 9.79 ml of HBSS. […] Stimulus buffer was composed of 15 mM Tl2SO4, 0.75 mM K2SO4 in FluxOR chloride free buffer (diluted to 1× using deionized water). The final concentration of Tl2SO4 and K2SO4 in the assay plate was 3 mM and 0.15 mM, respectively.
Plating and induction of cells: The CHO T-Rex hROMK (human Kir1.1) stable cell line was maintained in Ham's F12 media supplemented with 10% FBS, 1% Penicillin-Streptomycin, 500 μg/ml Zeocin and 10 μg/ml Blasticidin at 37° C. in a 5% CO2 incubator. […] The cell suspension was centrifuged at 1200 rpm for 5 min. After discarding the supernatant, the cells were resuspended in fresh growth media and cell concentration was determined using a hemocytometer. […] The assay plate was kept at 37° C. in a 5% CO2 incubator.
Assay protocol: On the day of experiment, media was removed and loading buffer was added (30 μl/well) to the assay plate. The cells were incubated in the loading buffer for 30 minutes at 37° C. The loading buffer was then replaced by assay buffer (30 μl/well) followed by addition of test compounds or controls. […] Each well was read for 90 sec at 2 sec interval and the stimulus buffer was added after 20 seconds of baseline recording. The final DMSO concentration was either 0.5 or 1% in the assay plate. Positive and negative controls were defined by addition of DMSO or 3 μM of a standard ROMK inhibitor, respectively, to the wells instead of a test compound.
A 10-point concentration response curve was used to estimate the IC50 value of test compounds.

Chain of hERG channels (Q12809 whole entry): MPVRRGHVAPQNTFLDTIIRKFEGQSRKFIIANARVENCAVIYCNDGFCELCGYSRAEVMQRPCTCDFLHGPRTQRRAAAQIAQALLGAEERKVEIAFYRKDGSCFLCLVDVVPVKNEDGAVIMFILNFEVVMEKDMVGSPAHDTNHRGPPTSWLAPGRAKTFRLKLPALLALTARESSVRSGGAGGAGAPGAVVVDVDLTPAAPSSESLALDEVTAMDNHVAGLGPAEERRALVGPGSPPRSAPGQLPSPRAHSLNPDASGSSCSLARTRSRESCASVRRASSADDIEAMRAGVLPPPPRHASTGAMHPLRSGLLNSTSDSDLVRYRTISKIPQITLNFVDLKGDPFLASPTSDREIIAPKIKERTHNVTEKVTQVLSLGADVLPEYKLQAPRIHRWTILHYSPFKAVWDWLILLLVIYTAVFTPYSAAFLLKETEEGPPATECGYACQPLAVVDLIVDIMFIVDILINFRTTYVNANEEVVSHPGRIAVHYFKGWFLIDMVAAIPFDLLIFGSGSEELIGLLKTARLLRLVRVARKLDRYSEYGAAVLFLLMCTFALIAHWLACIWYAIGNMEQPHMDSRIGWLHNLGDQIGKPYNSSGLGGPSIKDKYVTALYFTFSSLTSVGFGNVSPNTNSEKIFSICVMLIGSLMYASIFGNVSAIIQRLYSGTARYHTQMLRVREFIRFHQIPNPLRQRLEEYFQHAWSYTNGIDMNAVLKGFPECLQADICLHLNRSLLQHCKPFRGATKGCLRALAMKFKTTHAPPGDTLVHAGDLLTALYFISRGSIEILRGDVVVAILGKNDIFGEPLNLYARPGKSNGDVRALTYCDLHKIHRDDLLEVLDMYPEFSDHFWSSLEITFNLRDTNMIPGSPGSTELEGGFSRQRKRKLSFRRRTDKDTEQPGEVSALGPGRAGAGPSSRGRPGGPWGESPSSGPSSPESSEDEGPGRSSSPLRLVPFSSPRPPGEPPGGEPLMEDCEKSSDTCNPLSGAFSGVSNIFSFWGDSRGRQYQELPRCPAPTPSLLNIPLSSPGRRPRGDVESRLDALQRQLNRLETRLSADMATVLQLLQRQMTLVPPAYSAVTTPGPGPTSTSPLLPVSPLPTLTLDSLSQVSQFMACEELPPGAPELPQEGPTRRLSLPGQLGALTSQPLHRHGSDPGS

SMILES | inhibition at 1 µM (hERG channels) [%] | IC50 (hROMK (human Kir1.1)) [nM]
Cc1c(C(O)CN(C)Cc2ccc(-c3ccc(C#N)c(F)c3)nc2)ccc2c1COC2=O (single isomer, unassigned) [Example 21-I, 2-fluoro-4-(5-(((2-hydroxy-2-(4-methyl-1-oxo-1,3-dihydroisobenzofuran-5-yl)ethyl)(methyl)amino)methyl)pyridin-2-yl)benzonitrile] | 68 | –
Cc1cc(-c2ccc(CN(C)CC(O)c3ccc4c(c3C)COC4=O)cn2)ncc1C#N (single isomer, unassigned) [Example 22-I, 5′-(((2-hydroxy-2-(4-methyl-1-oxo-1,3-dihydroisobenzofuran-5-yl)ethyl)(methyl)amino)methyl)-4-methyl-[2,2′-bipyridine]-5-carbonitrile] | 9.5 | –
Cc1c(C(O)CN(C)Cc2ccc(-n3ccc4c(C#N)cccc43)cc2)ccc2c1COC2=O (single isomer, unassigned) [Example 28-I, 1-(4-(((2-hydroxy-2-(4-methyl-1-oxo-1,3-dihydroisobenzofuran-5-yl)ethyl)(methyl)amino)methyl)phenyl)-1H-indole-4-carbonitrile] | 94 | 180
Cc1cc(-c2ccc(CN(C)CC(O)c3ccc4c(c3C)COC4=O)cc2)ncc1C#N (single isomer, unassigned) [Example 31-I, 6-(4-(((2-hydroxy-2-(4-methyl-1-oxo-1,3-dihydroisobenzofuran-5-yl)ethyl)(methyl)amino)methyl)phenyl)-4-methylnicotinonitrile] | 39 | 40
Cc1c([C@@H](O)CNCc2cnn(-c3cc(F)c4oc(=O)n(C)c4c3)c2)ccc2c1COC2=O (single isomer, unassigned) [Example 107] | 20 | 27
Cc1cc(-n2cc(CNC(C)C(O)c3ccc4c(c3C)COC4=O)cn2)ncc1C#N (single isomer, unassigned) [Example 176-I, 6-(4-(((1-hydroxy-1-(4-methyl-1-oxo-1,3-dihydroisobenzofuran-5-yl)propan-2-yl)amino)methyl)-1H-pyrazol-1-yl)-4-methylnicotinonitrile] | 44 | 4
Cc1c(C(O)CNCc2ccc(-c3ccc(C#N)c(F)c3)nc2)ccc2c1COC2=O (centres unmarked) [Example 3-I, 2-fluoro-4-(5-(((2-hydroxy-2-(4-methyl-1-oxo-1,3-dihydroisobenzofuran-5-yl)ethyl)amino)methyl)pyridin-2-yl)benzonitrile] | 66 | –
Cc1c(C(O)CNCc2ccc(-c3ccc(C#N)c(F)c3)cc2)ccc2c1COC2=O (centres unmarked) [Example 10-I, 3-fluoro-4′-(((2-hydroxy-2-(4-methyl-1-oxo-1,3-dihydroisobenzofuran-5-yl)ethyl)amino)methyl)-[1,1′-biphenyl]-4-carbonitrile] | 92 | 53
Cc1c(C(O)CN(C)Cc2ccc(-n3cc(C#N)c4ccccc43)cc2)ccc2c1COC2=O (centres unmarked) [Example 12-I, 1-(4-(((2-hydroxy-2-(4-methyl-1-oxo-1,3-dihydroisobenzofuran-5-yl)ethyl)(methyl)amino)methyl)phenyl)-1H-indole-3-carbonitrile] | 99 | 78
Cc1c(C(O)CN(C)Cc2cnc(-c3ccc(C#N)c(F)c3)nc2)ccc2c1COC2=O (centres unmarked) [Example 19-I, 2-fluoro-4-(5-(((2-hydroxy-2-(4-methyl-1-oxo-1,3-dihydroisobenzofuran-5-yl)ethyl)(methyl)amino)methyl)pyrimidin-2-yl)benzonitrile] | 33 | 150
COc1c(CNC[C@H](O)c2ccc3c(c2C)COC3=O)cnn1-c1cc(C)c(C#N)cn1 [Example 35, (R)-6-(4-(((2-hydroxy-2-(4-methyl-1-oxo-1,3-dihydroisobenzofuran-5-yl)ethyl)amino)methyl)-5-methoxy-1H-pyrazol-1-yl)-4-methylnicotinonitrile] | 91 | 1
CC(=O)N[C@@H](CNCc1cnn(-c2cc(C)c(C#N)cn2)c1)c1ccc2c(c1C)COC2=O [Example 39, (R)—N-(2-(((1-(5-cyano-4-methylpyridin-2-yl)-1H-pyrazol-4-yl)methyl)amino)-1-(4-methyl-1-oxo-1,3-dihydroisobenzofuran-5-yl)ethyl)acetamide] | 2.6 | 58
Cc1c([C@@H](O)CNCc2cnn(-c3cnc(C#N)cn3)c2)ccc2c1COC2=O [Example 41, (R)-5(4-(((2-hydroxy-2-(4-methyl-1-oxo-1,3-dihydroisobenzofuran-5-yl)ethyl)amino)methyl)-1H-pyrazol-1-yl)pyrazine-2-carbonitrile] | 50 | 32
Cc1c(-c2cnn(CCNC[C@H](O)c3ccc4c(c3C)COC4=O)c2)ccc2c1COC2=O [Example 43, (R)-5-(l-hydroxy-2-((2-(4-(4-methyl-1-oxo-1,3-dihydroisobenzofuran-5-yl)-1H-pyrazol-1-yl)ethyl)amino)ethyl)-4-methylisobenzofuran-1(3H)-one] | 7.1 | 66
Cc1c([C@@H](O)CNCc2cnc(-n3cnc(C#N)c3)nc2)ccc2c1COC2=O [Example 45, (R)-1-(5-(((2-hydroxy-2-(4-methyl-1-oxo-1,3-dihydroisobenzofuran-5-yl)ethyl)amino)methyl)pyrimidin-2-yl)-1H-imidazole-4-carbonitrile] | 74 | 12
COc1nc(-n2cc(CNC[C@H](O)c3ccc4c(c3C)COC4=O)cn2)ccc1C#N [Example 48, (R)-6-(4-(((2-hydroxy-2-(4-methyl-1-oxo-1,3-dihydroisobenzofuran-5-yl)ethyl)amino)methyl)-1H-pyrazol-1-yl)-2-methoxynicotinonitrile] | 67 | 14
Cc1cnc(-n2cc(CNC[C@H](O)c3ccc4c(c3C)COC4=O)cn2)cc1C#N [Example 49, (R)-2-(4-(((2-hydroxy-2-(4-methyl-1-oxo-1,3-dihydroisobenzofuran-5-yl)ethyl)amino)methyl)-1H-pyrazol-1-yl)-5-methylisonicotinonitrile] | 18 | 32
COc1cc(-n2cc(CNC[C@H](O)c3ccc4c(c3C)COC4=O)nc2C)ncc1C#N [Example 52, (R)-6-(4-(((2-hydroxy-2-(4-methyl-1-oxo-1,3-dihydroisobenzofuran-5-yl)ethyl)amino)methyl)-2-methyl-1H-imidazol-1-yl)-4-methoxynicotinonitrile] | 13 | 180
COc1cc(-n2ncc3c(CNC[C@H](O)c4ccc5c(c4C)COC5=O)cccc32)ncc1C#N [Example 55] | 69 | 78
Cc1cc(-n2cc(CNC[C@H](NCCO)c3ccc4c(c3C)COC4=O)cn2)ncc1C#N [Example 56, (R)-6-(4-(((2-((2-hydroxyethyl)amino)-2-(4-methyl-1-oxo-1,3-dihydroisobenzofuran-5-yl)ethyl)amino)methyl)-1H-pyrazol-1-yl)-4-methylnicotinonitrile] | 3.7 | 80
COCCN[C@@H](CNCc1cnn(-c2cc(C)c(C#N)cn2)c1)c1ccc2c(c1C)COC2=O [Example 57, (R)-6-(4-(((2-((2-methoxyethyl)amino)-2-(4-methyl-1-oxo-1,3-dihydroisobenzofuran-5-yl)ethyl)amino)methyl)-1H-pyrazol-1-yl)-4-methylnicotinonitrile] | 35 | 150
COC(=O)N[C@@H](CNCc1cnn(-c2cc(C)c(C#N)cn2)c1)c1ccc2c(c1C)COC2=O [Example 60, methyl (R)-(2-(((1-(5-cyano-4-methylpyridin-2-yl)-1H-pyrazol-4-yl)methyl)amino)-1-(4-methyl-1-oxo-1,3-dihydroisobenzofuran-5-yl)ethyl)carbamate] | 12 | 72
Cc1cc(-n2cnc(CNC[C@H](O)c3ccc4c(c3C)COC4=O)c2)nc(C)c1C#N [Example 68, (R)-6-(4-(((2-hydroxy-2-(4-methyl-1-oxo-1,3-dihydroisobenzofuran-5-yl)ethyl)amino)methyl)-1H-imidazol-1-yl)-2,4-dimethylnicotinonitrile] | 17 | 38
COc1cc(-n2cc(CNC[C@H](O)c3ccc4c(c3C)COC4=O)cn2)nc(C)c1C#N [Example 70, (R)-6-(4-(((2-hydroxy-2-(4-methyl-1-oxo-1,3-dihydroisobenzofuran-5-yl)ethyl)amino)methyl)-1H-pyrazol-1-yl)-4-methoxy-2-methylnicotinonitrile] | 27 | 19
Cc1cc(-n2cc(CNC[C@H](O)c3ccc4c(c3C)COC4=O)cn2)nc(C)c1C#N [Example 71, (R)-6-(4-(((2-hydroxy-2-(4-methyl-1-oxo-1,3-dihydroisobenzofuran-5-yl)ethyl)amino)methyl)-1H-pyrazol-1-yl)-2,4-dimethylnicotinonitrile] | 39 | 22
Cc1c([C@@H](O)CNCc2cnn(-c3ccc4oc(=O)n(C)c4c3)c2)ccc2c1COC2=O [Example 81, (R)-5-(4-(((2-hydroxy-2-(4-methyl-1-oxo-1,3-dihydroisobenzofuran-5-yl)ethyl)amino)methyl)-1H-pyrazol-1-yl)-3-methylbenzo[d]oxazol-2(3H)-one] | 6 | –
CCOC(=O)c1nn(-c2cc(C)c(C#N)cn2)cc1CNC[C@H](O)c1ccc2c(c1C)COC2=O [Example 98, ethyl (R)-1-(5-cyano-4-methylpyridin-2-yl)-4-(((2-hydroxy-2-(4-methyl-1-oxo-1,3-dihydroisobenzofuran-5-yl)ethyl)amino)methyl)-1H-pyrazole-3-carboxylate] | 54 | –
Cc1c([C@@H](O)CNCc2ccc(-n3cc(C#N)c(C4CC4)n3)nc2)ccc2c1COC2=O [Example 116, (R)-3-cyclopropyl-1-(5-(((2-hydroxy-2-(4-methyl-1-oxo-1,3-dihydroisobenzofuran-5-yl)ethyl)amino)methyl)pyridin-2-yl)-1H-pyrazole-4-carbonitrile] | 76 | –

— patent US10723723B2, “Substituted bicycle heterocyclic derivatives useful as ROMK channel inhibitors” (BRISTOL-MYERS SQUIBB COMPANY, priority 2016, dated 2020)
